# Read-outs that look alike come from different tables or passages of the source.
# Key:
# WT-SOD1 = WT-SOD1 aggregation by cellular stress; format: cell-based
# SOD1 [1] = test: Western blot / native gel analysis of SOD1 aggregation; format: cell-based, human; details: Table 1; effect on SOD1 aggregation, native / non-SDS-PAGE gel
# Experimental: Using RIPA buffer (50 mM Tris-Cl, pH 7.5, 150 mM NaCl, 1% NP-40, 0.1% SDS and […]) for SDS-PAGE and lysis buffer (50 mM Tris-Cl, pH 7.5, 150 mM NaCl, 0.3% NP-40) for Native-PAGE, proteins were extracted from cells. Samples were separated by the SDS-PAGE or the Native-PAGE and transferred to PVDF membrane. Blotted membrane was blocked with TBST buffer including 3% skim milk for 1 hour, and reacted with specific antibodies. The reacted antibodies were detected by ECL and X-ray film exposure. Antibodies used in the present disclosure are as follows: pan-SOD1 (GTX100554) was purchased from Genetex (California, USA). Misfolded SOD1-specific antibody (B8H10) was purchased from MediMabs (Montreal, Canada). Actin (sc-1616), GST (sc-138), and GFP (Green fluorescent protein; sc-8036) were purchased from Santa Cruz biotechnology (Santa Cruz, CA, USA). TDP-43 antibody (10782-2-AP) was purchased from Proteintech (Rosemont, IL, USA). Anti-FLAG (Sigma; F3165) was purchased from Sigma Aldrich (St, Louis, Mo, USA), and HRP-conjugated goat anti-mouse, goat anti-rabbit, and mouse anti-goat antibodies (Pierce, Thermo Fisher Scientific, Inc., Rockford, IL, USA) were used as secondary antibodies.
# (§1) GFP-SOD1 (WT, G85R, G93A), non-tagged SOD1 (WT, A4V, G37R, G85R, G93A) and tdTomato-TDP43 expression vectors were purchased from Addgene (Cambridge, MA, USA). Transfection was performed using Jet-PEI reagent (JetPEI; Polyplus transfection, New York, NY, USA) according to the manufacturer's protocol. Briefly, vectors were mixed with JetPEI reagent in 150 mM NaCl buffer, and then mixture was reacted for 15 minutes. The mixture was added to cells in serum-free medium and reacted for 4 hours. After reaction, the cells were replaced with a culture medium supplemented with 10% FBS.
# SOD1 [2] = test: Immunofluorescence staining of SOD1 aggregation and misfolded SOD1; format: cell-based, human; details: Table 1; IF staining of SOD1
# Experimental: Cells on coverslip were washed with PBS, fixed with 4% PFA at room temperature for 30 minutes, and then infiltrated with 0.1% Triton X-100/PBS for 10 minutes. The cells were treated with blocking solution (anti-Human Antibody 1:500 dilution in PBS) for 1 hour, and then cells were reacted with anti-pan SOD1 (1:400 dilution), misfolded SOD1 (B8H10; 1:200 dilution in blocking solution) at 4° C. overnight. Finally, the cells were reacted with FITC and rhodamine-conjugated secondary antibody at 4° C. for 6 hours. Nuclei were stained with 4,6-diamidino-2-phenylindole (DAPI), and endoplasmic reticula (ERs) were stained with ER-Tracker Red dye for 10 minutes. The cells were washed 3 times with PBS, and then coverslips were mounted with mounting solution [H-5501; Vector Laboratories (Burlingame, CA, USA)] and analyzed by fluorescence microscopy (Zeiss).
# as §1
# [3] = system: WT-SOD1 and mutant SOD1-GST (A4V, G37R, G85R, G93A); test: ELISA compound screening for binding inhibitor between WT-SOD1 and mutant SOD1; parameters: species or system human; details: Table 1; compounds at final concentration of 50 μM
# Experimental: For compound screening, the present inventors applied an ELISA assay system. To select a binding inhibitor between WT-SOD1 and mutant SOD1, the present inventors used 0.5% paraformaldehyde (PFA) to fix WT-SOD1 recombinant protein on a 96-well plate. The plate was dried, washed with phosphate-buffered saline (PBS), and reacted with the compounds at a final concentration of 50 μM, and then mutant SOD1-GST (A4V, G37R, G85R, G93A) proteins were added. After 2 hours of reaction, the 96-well plate was washed with PBS and blocked with 3% skim milk to prevent non specific reaction. The plate was reacted with anti-GST antibody (diluted at 1:10,000) for 1 hour, and then reacted with anti-mouse IgG-HRP (diluted at 1:50,000) for 1 hour. After washing twice, the plate was reacted with a 3,3′,5,5′-tetramethylbenzidine (TMB) solution (Calbiochem) for 30 minutes and a stop solution (1N H2SO4) for 30 minutes. Finally, the present inventors analyzed values using an ELISA reader (450 nm absorbance). Negative control (−; red line) was reacted without mutant SOD1, and positive control (+; blue line) was reacted with mutant SOD1 without the compounds.
# To prepare recombinant proteins, human SOD1 (WT, A4V, G37R, G85R, G93A) was added to EcoRI and HindIII sites of pGEX-TEV vector, an improved vector made by adding a TEV protease cleavage site to pGEX-4T1 (Invitrogen). The recombinant proteins were expressed as GST-fusion proteins in Escherichia coli (E. coli) strain BL21 (DE3). The proteins were purified by glutathione-affinity chromatography.
# normal human fibroblasts = test: Cell viability measurement (MTT), normal fibroblasts; format: cell-based; details: Table 1; cell type not given, neurons (FIG. 9A) and normal fibroblasts (FIG. 9B)
# Experimental: HEK293 cells were purchased from American Type Culture Collection (ATCC, Manassas, VA, USA) and maintained at 37° C. and 5% CO2 in DMEM liquid medium including 10% fetal bovine serum and 1% penicillin-streptomycin. SK—N—SH cells were purchased from Korean Cell Line Bank (KCLB, Seoul, South Korea) and maintained in MEM medium including 10% fetal bovine serum, 1% antibiotic, 25 mM HEPES, and 300 mg/L L-Glu. Human fibroblasts (person) were purchased from Coriell Cell Repositories (New Jersey, USA) and maintained in EMEM including 15% FBS, 2 mM Glutamine, and 26 mM HEPES without antibiotics. Thapsigargin (ER calcium scavenger: CAS 67526-95-8) was purchased from Calbiochem (Darmstadt, Germany). CoCl2 (hypoxia-inducer: C8661) was purchased from Sigma Aldrich (St, Louis, Mo, USA).
# To check cells viability, the cells were reacted with 0.5 mg/ml MTT solution (475989; Merck, Darmstadt, Germany) at 37° C. for 4 hours. After removing residual solution and washing with PBS, precipitate was dissolved in 200 μl DMSO, and quantified by measuring absorbance at 540 nm.
ELISA [3],SMILES,"SOD1 aggregation under cellular stress agents (WT-SOD1; FIG. 1C, 1D, FIG. 2)",SOD1 aggregation under cellular stress agents (WT-SOD1),Western Blot (SOD1 [1]),Immuno-fluorscence (SOD1 [2]),Toxicity (MTT) (normal human fibroblasts)
,C[N+](C)(C)CCO.C[N+](C)(C)CCO.[SH-].[SH-].[S]=[Mo]=[S] [ATN-224],induced the WT-SOD1 aggregation,,,,
,[Cl-].[Cl-].[Co+2] [CoCl2],,SOD1 aggregation and increase of misfolded SOD1,,,
Effect x,"COc1cc(CCC(=O)O[C@H]2Cc3cc4ccc(=O)oc4cc3OC2(C)C)ccc1O [SNU-C4, (S)-8,8-dimethyl-2-oxo-7,8-dihydro-2H,6H-pyrano[3,2-g]chromen-7-yl 3-(4-hydroxy-3-methoxyphenyl) propanoate]",,,Effect x,Effect x,No
Effect ○,"COc1ccc(/C=C/C(=O)O[C@H]2Cc3cc4ccc(=O)oc4cc3OC2(C)C)cc1OC [SNU-C5, (S)-8,8-dimethyl-2-oxo-7,8-dihydro-2H,6H-pyrano[3,2-g]chromen-7-yl (E)-3-(3,4-dimethoxyphenyl) acrylate]",,,Effect x,Effect x,No
Effect x,"COc1ccc(CCC(=O)O[C@H]2Cc3cc4ccc(=O)oc4cc3OC2(C)C)cc1OC [SNU-C7, (S)-8,8-dimethyl-2-oxo-7,8-dihydro-2H,6H-pyrano[3,2-g]chromen-7-yl 3-(3,4-dimethoxyphenyl) propanoate]",,,Effect x,Effect x,No
Effect x,"CC1(C)Oc2cc3oc(=O)ccc3cc2C[C@@H]1OC(=O)/C=C/c1ccncc1 [SNU-C9, (S)-8,8-dimethyl-2-oxo-7,8-dihydro-2H,6H-pyrano[3,2-g]chromen-7-yl (E)-3-(pyridin-4-yl) acrylate]",,,Effect ○,Effect ○,No
Effect ○,"CC1(C)Oc2cc3oc(=O)ccc3cc2C[C@@H]1OC(=O)/C=C/c1cccc(O)c1 [SNU-C10, (S)-8,8-dimethyl-2-oxo-7,8-dihydro-2H,6H-pyrano[3,2-g]chromen-7-yl (E)-3-(3-hydroxyphenyl) acrylate]",,,Effect ○,Effect ○,No
,"CC1(C)Oc2cc3oc(=O)ccc3cc2C[C@@H]1OC/C=C/c1ccc(F)cc1 [SNU-C13, (S,E)-7-((3-(4-fluorophenyl)allyl)oxy)-8,8-dimethyl-7,8-dihydro-2H,6H-pyrano[3,2-g]chromen-2-one]",,,Effect x,,
,"COc1cc(/C=C/C(=O)O[C@H]2Cc3cc4ccc(=O)oc4cc3OC2(C)C)ccc1OC(C)=O [SNU-C17, (S)-8,8-dimethyl-2-oxo-7,8-dihydro-2H,6H-pyrano[3,2-g]chromen-7-yl (E)-3-(4-acetoxy-3-methoxyphenyl) acrylate]",,,Effect ○,Effect ○,
,"CC1(C)Oc2cc3oc(=O)ccc3cc2C[C@@H]1OC(=O)/C=C/c1ccc(F)c(F)c1 [SNU-C18, (S)-8,8-dimethyl-2-oxo-7,8-dihydro-2H,6H-pyrano[3,2-g]chromen-7-yl (E)-3-(3,4-difluorophenyl) acrylate]",,,Effect ○,Effect ○,Toxic
,c1ccc(CN(CCN(Cc2ccccn2)Cc2ccccn2)Cc2ccccn2)nc1 [TPEN],induced the WT-SOD1 aggregation,,,,
,C/C=C(/C)C(=O)O[C@H]1C(C)=C2[C@H]([C@@H]1OC(=O)CCCCCCC)[C@@](C)(OC(C)=O)C[C@H](OC(=O)CCC)[C@@]1(O)[C@H]2OC(=O)[C@@]1(C)O [Thapsigargin],promoted the WT-SOD1 aggregation,,,,

SMILES,ELISA [3],"SOD1 aggregation under cellular stress agents (WT-SOD1; FIG. 1C, 1D, FIG. 2)",SOD1 aggregation under cellular stress agents (WT-SOD1),Western Blot (SOD1 [1]),Immuno-fluorscence (SOD1 [2]),Toxicity (MTT) (normal human fibroblasts)
"CC(=O)Oc1cccc(/C=C/C(=O)O[C@H]2Cc3cc4ccc(=O)oc4cc3OC2(C)C)c1 [SNU-C14, (S)-8,8-dimethyl-2-oxo-7,8-dihydro-2H,6H-pyrano[3,2-g]chromen-7-yl (E)-3-(3-acetoxyphenyl) acrylate]",Effect ○,,,Effect ○,Effect ○,No
"COc1cc(CCC(=O)O[C@H]2Cc3cc4ccc(=O)oc4cc3OC2(C)C)ccc1OC(C)=O [SNU-C15, (S)-8,8-dimethyl-2-oxo-7,8-dihydro-2H,6H-pyrano[3,2-g]chromen-7-yl 3-(4-acetoxy-3-methoxyphenyl) propanoate]",Effect x,,,Effect ○,Effect ○,No

# From patent US12448393B2, “Use of novel compound, for preventing, improving or treating amyotrophic lateral sclerosis” (PRG S&TECH INC., priority 2019, dated 2025)
